Reference: patent US20220152100A1, “METHODS FOR CONTROLLED ACTIVATION OR ELIMINATION OF THERAPEUTIC CELLS” (Bellicum Pharmaceuticals, Inc., priority 2014, published 2022)

Columns and labels:
[1] = system: gene-modified allodepleted cells (SFG.iCasp9.2A.CD19); assay: AP20187-induced apoptosis of gene-modified allodepleted T cells (annexin V/7-AAD); assay type: cell-based, human
Method: Suicide gene functionality was assessed by adding a small molecule synthetic homodimerizer, AP20187 (Ariad Pharmaceuticals; Cambridge, Mass.), at 10 nM final concentration the day following CD19 immunomagnetic selection. Cells were stained with annexin V and 7-amino-actinomycin (7-AAD)(BD Pharmingen) at 24 hours and analyzed by flow cytometry. Cells negative for both annexin V and 7-AAD were considered viable, cells that were annexin V positive were apoptotic, and cells that were both annexin V and 7-AAD positive were necrotic. The percentage killing induced by dimerization was corrected for baseline viability as follows: Percentage killing=100%−(% Viability in AP20187-treated cells÷% Viability in non-treated cells).
Cells were maintained in T cell medium containing 50 U/ml IL-2 until 22 days after transduction. A portion of cells was reactivated on 24-well plates coated with […] OKT3 and 1 μg/ml anti-CD28 (Clone CD28.2, BD Pharmingen, San Jose, Calif.) for 48 to 72 hours. CD19 expression and suicide gene function in both reactivated and non-reactivated cells were measured on day 24 or 25 post transduction.
The day following immunomagnetic selection, 10 nM of the chemical inducer of dimerization, AP20187, was added to induce apoptosis, which appeared within 24 hours. […] Killing efficiency after correction for baseline viability was about 92.9%±3.8%. Large-scale CD19 selection produced cells that were killed with similar efficiency as small-scale selection: mean viability with and without AP20187, and percentage killing, in large and small scale were about 3.9%, about 84.0%, about 95.4% (n=3) and about 6.6%, about 79.3%, about 91.4% (n=5) respectively. AP20187 was non-toxic to non-transduced cells: viability with and without AP20187 was about 86%±9% and 87%±8% respectively (n=6).
To assess the stability of transgene expression and function, cells were maintained in T cell culture medium and low dose IL-2 (50 U/ml) until […] after transduction. A portion of cells was then reactivated with OKT3/anti-CD28. CD19 expression was analyzed by flow cytometry 48 to 72 hours later, and suicide gene function was assessed by treatment with 10 nM AP20187. The obtained are for cells from day 5 post transduction (ie, 1 day after CD 19 selection) and day 24 post transduction, with or without 48-72 hours of reactivation (5 experiments). In 2 experiments, CD25 selection was performed after OKT3/aCD28 activation to further enrich activated cells. Error bars represent standard deviation. * indicates p<0.05 when compared to cells from day 5 post transduction. By day 24, surface CD19 expression fell from about 98%±1% to about 88%±4% (p<0.05) with a parallel decrease in mean fluorescence intensity (MFI) from 793±128 to 478±107 (p<0.05) (see FIG. 13B). Similarly, there was a significant reduction in suicide gene function: residual viability was 19.6±5.6% following treatment with AP20187; after correction for baseline viability of 54.8±20.9%, this equated to killing efficiency of only 63.1±6.2%.
To determine whether the decrease in transgene expression with time was due to reduced transcription following T cell quiescence or to elimination of transduced cells, a portion of cells were reactivated on day 22 post transduction with OKT3 and anti-CD28 antibody. […] CD19 expression increased from about 88%±4% to about 93%±4% (p<0.01) and CD19 MFI increased from 478±107 to 643±174 (p<0.01). […] Killing of the CD25 negative fraction was 78.6±9.1%.

[2] = system: human CD3+/GFP+ T cells; assay: SCID mouse-human xenograft: elimination of iCasp9M-transduced CTLs in tumors; assay type: in vivo, NOD/SCID mice; conditions: single dose 50 μg intraperitoneally, versus carrier, 3 days after
Method: Non-obese diabetic severe combined immunodeficient (NOD/SCID) mice, 6 to 8 weeks of age, were irradiated (250 rad) and injected subcutaneously in the right flank with 10×10^6 to 15×10^6 LCLs resuspended in Matrigel (BD Bioscience). Two weeks later mice bearing tumors that were approximately 0.5 cm in diameter were injected into the tail vein with a 1:1 mixture of nontransduced and iCasp9.I.GFPhigh-transduced EBV CTLs (total 15×10^6). At 4 to 6 hours prior and 3 days after CTL infusion, mice were injected intraperitoneally with recombinant hIL-2 (2000 U; Proleukin; Chiron). […] By FACS analysis, the number of GFP+ cells within the gated CD3^+ population was evaluated. […]
The function of iCasp9M also was evaluated in transduced EBV-CTLs in vivo. […] Three days after CID/carrier administration, tumors were analyzed for human CD3^+/GFP^+ cells. […]
The function of iCasp9M in vivo, was assayed. […] On day 3 after CTL administration, mice received either CID (50 μg AP20187; (black diamonds, n=6) or carrier only (black squares, n=5) and on day 6 the presence of human CD3+/GFP+ T cells in the tumors was analyzed. Human CD3+ T cells isolated from the tumors of a control group of mice that received only nontransduced CTLs (15×10^6 CTLs; n=4) were used as a negative control for the analysis of CD3+/GFP+ T cells within the tumors.

[3] = system: MT-2; assay: CID-induced apoptosis (annexin V) in transduced MT-2 cells; assay type: cell-based, human; conditions: 8 hours
[4] = system: EBV-specific CTL lines (EBV-CTL); assay: CID-induced elimination/apoptosis of transduced EBV-CTLs (GFP, annexin V/7-AAD flow cytometry); assay type: cell-based, human; conditions: for elimination of GFP+ cells: GFPhigh
[5] = 10 nM, 24 hours, day after CD19 selection
[6] = T cells selected for high expression, overnight 10 nM

Question: For `CC[C@H](C(=O)N1CCCC[C@H]1C(=O)O[C@H](CCc1ccc(OC)c(OC)c1)c1cccc(OCC(=O)NCC(CNC(=O)COc2cccc([C@@H](CCc3ccc(OC)c(OC)c3)OC(=O)[C@@H]3CCCCN3C(=O)[C@@H](CC)c3cc(OC)c(OC)c(OC)c3)c2)CN(C)C)c1)c1cc(OC)c(OC)c(OC)c1` [AP20187], which “killing efficiency after correction for baseline viability” value [1, 5] is on record?
Answer: about 92.9%±3.8

Question: And the “viable cells (annexin V and 7-AAD negative)” value [1, 5]?
Answer: about 5.5%±2.5

Question: What about the killing efficiency ([1]; OKT3/aCD28-reactivated cells, day 24 or 25) of the same molecule?
Answer: ~84.6%±8.0

Question: And the mean viability ([1]; small-scale CD19 selection, n=5)?
Answer: about 6.6%

Question: And the “viability of non-transduced cells” value ([1]; with AP20187, n=6)?
Answer: about 86%±9

Question: What about the “reduction in the number of human CD3+/GFP+ T cells in tumors” value [2] of the same molecule?
Answer: > 99%

Question: And the “apoptotic cells (annexin-V)” value ([3]; iCasp9M-transduced MT-2, 10 nM)?
Answer: 57.9%+/−11.9

Question: What about the “apoptotic cells (annexin-V)” value ([3]; iFas-transduced MT-2, 10 nM) of the same molecule?
Answer: 19.3%+/−8.4

Question: What about the “concentration sufficient to obtain the maximal deletion effect” value ([4]; F-Casp9M.I.GFPhigh, survival of GFP+ cells on day 7) of the same molecule?
Answer: 1 nM

Question: And the “time to apoptotic characteristics (cell shrinkage and fragmentation)” value ([4]; GFPhigh-selected cells, 10 nM)?
Answer: ≤ 14 h

Question: What about the “deletion of transduced cells” value ([4]; GFPhigh-selected iCasp9M cells, 10 nM, day 7) of the same molecule?
Answer: 99.1%

Question: What about the “apoptotic (annexin-V+/7-AAD−) phenotype” value [4, 6] of the same molecule?
Answer: 64%

Question: And the “necrotic (annexinV+/7-AAD+) phenotype” value [4, 6]?
Answer: 30%

Question: And the “reduction in mean fluorescence intensity of GFP in surviving CTLs” value ([4]; iCasp9M-transduced CTLs after CID)?
Answer: 70%

Question: And the “elimination of GFP+ cells” value ([4]; iCasp9M-transduced CTLs, 10 nM, day 7)?
Answer: 99.2%+/−0.14

Question: And the “elimination of GFP+ cells” value ([4]; iFas-transduced CTLs, 10 nM, day 7)?
Answer: 89.3%+/−4.9
